row,SMILES,melting point [°C]
1,O=[N+]([O-])c1cc2c(NCc3ccc4c(c3)OCO4)nc(-n3ccnc3)nc2s1,245
2,CCCc1nn(-c2ccc(C(F)(F)F)cn2)cc1CCCOc1ccc(OC)c(CC(=O)O)c1,135 to 136
3,CCC1(O)CCC2C3CCC4=C(CC=C(OC)C4)C3CCC21C (stereo not drawn),131 to 134
4,CCCCCCCCCC1(C)NC(=S)NC1=S (stereo not drawn),88 to 89
5,c1cc(NC2=NCCS2)c2occc2c1,143 to 145
6,CCOC(=O)/C=C/C=C/c1ccc(OC(C)C)cc1,64 to 65
7,COc1nc(NC(=O)NS(=O)(=O)c2ccccc2OC(Cl)=CCl)nc(OC)n1,199 to 200
8,CC(C)(C)NC(=O)c1ccc(S(=O)(=O)Cl)cc1,179
9,O=Cc1ccc2c(c1)Sc1ccc(F)cc1C=C2,137 to 139
10,O=C(NCCCc1ccccc1)c1ccc2c(c1)C(Cl)(Cl)c1cc(C(=O)NCCCc3ccccc3)ccc1-2,165 to 167
11,Cc1ccc(Cn2ccc3cc(Br)ccc32)cc1,56 to 57
12,O=[N+]([O-])c1ccc2c(c1)SC(c1ccc(Cl)cc1Cl)O2 (stereo not drawn),106 to 108
13,O=C(O)CCNC(=O)C(CS)C(F)(F)F (stereo not drawn),108 to 110
14,COC(=O)c1cc(C(=O)c2c(C)c(OC)c3c(OCc4ccccc4)cccn23)ccc1NC(=O)C(F)(F)F,214
15,COc1ccc(Cn2c(=S)[nH]c(=S)c3[nH]c(C(C)C)nc32)cc1OC1CCCC1,204 to 206
16,COc1cccc(S(=O)(=O)Nc2nccnc2OC)c1Cl,151 to 152
17,COc1cc2[nH]c(=O)sc2cc1OC,192 to 193
18,CC1(C)CCC(C)(C)C1OS(C)(=O)=O,46
19,CCOC(=O)C1=C(C)NC(C)=C(C(=O)OCCN2CCN(C(c3ccccc3)c3ccccc3)CC2)C1c1cccc(Cl)c1 (stereo not drawn),72 to 75
20,Nc1sc(CCC(=O)O)cc1C(=O)c1ccccc1Cl,170 to 173
21,N#Cc1cc(-c2ccoc2)c2ccc(COc3cc(F)cc(-c4cccs4)c3)cc2n1,181 to 183
22,COCN(c1cccc2cc(-c3ncnn3C)n(COC)c12)S(=O)(=O)c1cccs1,110 to 111
23,CC(C)(C)OC(=O)C[C@@H]1C[C@@H](COS(C)(=O)=O)NC1=O,114 to 116
24,N#Cc1ccc(-c2cn3c(C(F)(F)F)cccc3n2)cc1,> 300
25,CC#CCCn1ncc2c(N)c3c(nc21)CN(CCCC)C3=O,171 to 172

row,SMILES,melting point [°C]
1,CC1(C)CC(c2ccccn2)c2ccccc2O1 (stereo not drawn),99 to 101
2,COc1ccc(-c2nc3cc(C(C(C)C)n4ccnc4)ccc3[nH]c2=O)cc1OC (stereo not drawn),243
3,CCn1nc(Br)c([N+](=O)[O-])c1NCc1ccccc1,92
4,CCc1nc2c(C)cc(C)nc2n1C1CCc2cc(-c3ccccc3-c3nnn[nH]3)ccc21 (stereo not drawn),181
5,Cc1scc2c1N(C(=O)NCCN1CCC(CCCN(C)C)CC1)c1ccccc1NC2=O,> 300
6,CCC[C@](CCO)(CCc1ccccc1)OCOc1ccc(-c2ccccc2)cc1,49 to 53
7,CC(C)c1cc(-c2ccc(F)c3ccccc23)nc(N(S(C)(=O)=O)S(C)(=O)=O)n1,144
8,O=C(c1ccc(F)cc1)N1CC2CC2(c2ccc(Cl)cc2)C1 (stereo not drawn),130 to 132
9,CN(C)c1ccc(NS(=O)(=O)c2cccc(Br)c2)cc1,187 to 189
10,CC(=O)Nc1ccccc1C(=O)C1CCCCC1,66
11,O=c1[nH]cnc2cc(Cl)sc12,238 to 239
12,COCc1cc(OCc2ccccc2)c2nc(C)n(C)c2c1,113
13,COc1cccc(-c2nc(-c3ccccc3)c3ncc(-c4csc5ccccc45)cc3n2)c1,112 to 113
14,NCC1CCn2c(cc3ccccc32)C1 (stereo not drawn),85 to 90
15,CC(C)(C)ON=C1CCC(NC(=O)Oc2ccc([N+](=O)[O-])cc2)CC1 (stereo not drawn),132
16,O=S(=O)(CCCCl)c1ccc(Cl)cc1,69 to 72
17,COC(=O)C1=C(C)Nc2nc(N)nc(N)c2C1c1ccccc1F (stereo not drawn),208
18,O=c1c2c(c1=O)Nc1c(cc(Cl)c(Cl)c1Cl)N2,> 360
19,COc1ccc(C(=O)Nc2ccccc2CCCC2CCCCN2C)cc1 (stereo not drawn),107 to 110
20,CCN(CC)Cc1ccnc(F)c1CNC(=O)c1cnc2cc(I)ccc2n1,147 to 149
21,O=C(O)CCc1cc2nc(C(F)(F)F)ccc2n1S(=O)(=O)c1cccc2cccnc12,216 to 217
22,CC(C)(C)c1cc(NC(=O)NCc2ccc([N+](=O)[O-])cc2)cc(C(C)(C)C)c1O,240 to 241
23,c1cc2cc(-n3cnnc3)ncc2[nH]1,254 to 257
24,COc1ccc(CNc2nc(CCCCC(=O)O)nc3sc(C)c(C)c23)cc1Cl,156
25,Cc1ncc([N+](=O)[O-])cc1C(=O)NCCO,144 to 145

row,SMILES,melting point [°C]
1,O=C1c2ccccc2C(c2ccc(O)cc2)(c2ccc(O)cc2)c2ccccc21,320 to 322
2,O=C(c1ccccc1)n1c(=O)n(C2CCN(CCCN3c4cccc5cccc(c45)S3(=O)=O)CC2)c2ccccc21,133
3,Cc1nc2c(N)nc3c(c2n1CC(C)(C)OCCS(C)(=O)=O)CCCC3,226 to 229
4,ClCc1ccc(-c2nc3cccc(Cl)c3o2)cc1,92 to 93
5,CC(C)c1ccccc1Sc1c(O)cc(-c2ccc3c(c2)OCCO3)oc1=O,246 to 248
6,Cc1ccc(S(=O)(=O)N2CC(O)CC2C(=O)O)cc1 (stereo not drawn),146 to 147
7,COc1ccc2[nH]c(=O)n(S(=O)(=O)c3ccc(Cl)cc3)c(=O)c2c1,192 to 194
8,O=C(O)CCCCCCCn1cnc(-c2ccc(O)cc2)c1-c1ccc(O)cc1,203 to 204
9,CC(C)c1c(C(=O)c2cccnc2)c2ccccc2n1C,114
10,Cc1ccc(S(=O)(=O)NCCCCOc2ccc(-n3cnnn3)cc2)cc1,127 to 128
11,Cc1c(NC(=O)c2cc3c(s2)CCCC3)cccc1-c1cn(C)c(=O)c(Br)n1,240 to 241
12,O=C(Nc1cc(-c2ccc(Cl)cc2)no1)c1c(Cl)cccc1Cl,208 to 209
13,COC(=O)c1cc2n(c1)CCc1ccccc1C2=O,125 to 127
14,CS(=O)(=O)Nc1ccc(C(=O)NC(=O)N2CCC(Cc3ccc(F)cc3)CC2)cc1,221 to 222
15,O=C1CCNC(C(O)c2ccccc2)C1 (stereo not drawn),124 to 126
16,CC(=O)c1ccc(OCc2ccccc2)c(OC/C=C/CN2CCC(c3noc4cc(F)ccc34)CC2)c1,124 to 125
17,Cc1cc(C)n(C)c1C(=O)c1ccc(Cl)cc1Cl,96 to 98
18,COc1cc2oc(=O)c3c(c2cc1OC)CCN(Cc1ccc(Cl)cc1)C3,173 to 175
19,O=c1c2cc(Cl)ccc2nc2n1CCCC2=Cc1ccccc1,121 to 123
20,COC(=O)c1cc(Nc2ccccc2)c(Nc2ccc(OC)cc2)cc1C(=O)OC,122 to 124
21,CCC1OCc2c1cnc(C)c2O (stereo not drawn),172
22,CCC(O)(Cn1cncn1)c1ccc(Oc2ccc(Cl)cc2)cc1Cl (stereo not drawn),140 to 142
23,CC1Nc2ccc(-c3ccc(C#N)[nH]3)cc2C(C)(C)O1 (stereo not drawn),201 to 202
